From patent US10927075B2, “Compositions and methods relating to the treatment of cancer, autoimmune disease, and neurodegenerative disease” (THE JACKSON LABORATORY, priority 2014, dated 2021)
Entries after “also recorded” stand apart in the source; their conditions may differ.

How the values were obtained:
U2OS cells = assay: DR-GFP reporter assay (HR repair of endonuclease generated DSB); type: cell-based, human; conditions: 100 nM or 1 μM
CH12-F3 cells = assay: Radiosensitivity (viability after ionizing irradiation); type: cell-based, mouse; conditions: 50 nM, 100 nM, or 150 nM; 0 or 2.5Gy
Protocol: FIG. 13A depicts a viability analysis of C-1523-treated CH12-F3 cells 24 h after 0 or 2.5 Gy IR. Data are normalized to the fraction of cells for each IR dose that received DMSO vehicle only; error bars represent the SEM for three independent experiments. FIG. 13B depicts detection of RAD51 by immunofluorescence in primary mouse B cells 24 h after 0 or 2.5 Gy IR and treatment with C-1523 (100 nM) or vehicle. RAD51 staining is in red, nuclear DNA (DAPI-stained) is in blue. Scale bar: 10 μM. FIG. 13C depicts the quantification of cells with nuclear RAD51 (RAD51+) from FIG. 13B. Error bars represent the SEM for three independent experiments. FIG. 13D depicts the quantitation of RAD51 expression in nuclear and cytoplasmic fractions as determined by Western Blot. Values represent the average of three independent experiments and error bars are the SEM. FIG. 13E depicts the immunofluorescent detection of NF-κB localization in primary murine B cells. […] FIG. 13F depicts the quantitation of nuclear NF-κB staining from FIG. 13E. […]
C-1523 disrupts RAD51 nucleocytoplasmic distribution and damage induced relocalization. To assess the DNA repair inhibitory activity of C-1523, radiosensitivity was measured in the mouse leukemia cell line, CH12-F3, with or without C-1523. […] Cells were allowed to recover in culture in the presence of C-1523 (or vehicle control) and viable cells were quantified. […]

[1] = system: AID-expressing mouse B-lymphocytes
[2] = system: WT, AID−/−, or Trp53−/− B-cells; assay: Active caspase-3 (AC3) immunofluorescence; type: cell-based, mouse; conditions: 100 nM, 3 days after activation
Protocol: FIG. 16A depicts the measurement of viability of primary WT (AID+/+, circle markers), AID−/− (square markers), and p53−/− (triangle markers) B cells under activating conditions (αCD40 and IL-4 on days 0 and 2) and treated with either DMSO (filled in markers) or 100 nM C-1523 (open markers). Measurement of cell viability was determined by Trypan Blue staining and counting of viable, non-staining, cells via hemocytometer. Data are represented as the mean cell count for each condition. FIG. 16B depicts analysis of cell death on day 4 of cells treated as in FIG. 16A. Cell death was measured by Trypan Blue staining and counting of blue, dead cells via hemocytometer. FIG. 16C depicts quantitation of active caspase-3 (AC3) in primary B cells via immunofluorescence assay. Left, positive (WT, 10 Gy IR) and negative (0 Gy, and p53−/− 10 Gy) controls for AC3 induction. […]
Cell death mediated by C-1523 is p53-dependent. […] To test the importance of p53, a central regulator of cellular responses to DNA damage, viability was measured in mouse primary B-cells from Trp53+/+ versus Trp53−/− mice following exposure to C-1523. […] Caspase 3 activation, a marker of apoptotic cell death, was measured in C-1523 treated B-cells. B-cells were stained with an antibody that recognizes cleaved, activated caspase-3 (AC3) and the number of AC3-positive cells was measured via immunofluorescence microscopy. […]

[3] = system: Primary mouse B cells (WT); assay: Micronuclei assay; type: cell-based; conditions: 100 nM, WT cells, 3 days
HEK293T cells = assay: Sister chromatid exchange assay; type: cell-based, human; conditions: 100 nM, relative to DMSO vehicle
From the text: C-1523 inhibits Sister Chromatid Exchange. […] To directly measure the effect of C-1523 on RAD51-mediated homologous recombination, we measured sister chromatid exchange and HR repair of an endonuclease generated DSB. Sister chromatid exchange (SCE) is a RAD51-mediated homologous recombination event between replicated sister chromatids in replicative or post-replicative cells, and reflects repair of replication-associated DNA damage. SCE can be measured following differential chromatid labeling by BrdU incorporation (Latt and Schreck, 1980). SCE is known to occur at a high rate in HEK293T cells, with approximately 0.25 spontaneously occurring exchange events per chromosome (FIGS. 14A, 14C) (Londono-Vallejo et al., 2004).
Propidium Iodide and flow cytometry.

[4] = system: primary splenic B-cells from WT (AID-expressing) mice; assay: Expansion and viability of activated primary splenic B-cells
[5] = system: primary B-cells from Trp53−/− mice; assay: Viability of activated primary B-cells; type: cell-based, mouse; conditions: 100 nM, 4-day activation
Protocol: (§1) Cell death mediated by C-1523 is p53-dependent. It was hypothesized that AID-dependent cytotoxicity induced by C-1523 would be associated with p53-mediated apoptosis. To test the importance of p53, a central regulator of cellular responses to DNA damage, viability was measured in mouse primary B-cells from Trp53+/+ versus Trp53−/− mice following exposure to C-1523. […] Caspase 3 activation, a marker of apoptotic cell death, was measured in C-1523 treated B-cells. B-cells were stained with an antibody that recognizes cleaved, activated caspase-3 (AC3) and the number of AC3-positive cells was measured via immunofluorescence microscopy. Following 10 Gy of ionizing irradiation Trp53+/+(WT), but not Trp53−/− cultures show a >30-fold increase in the percentage of AC3+ cells, confirming Trp53 dependent apoptosis in these cells after DNA damage. […] In order to more completely rule out apoptosis as the mode of cell death following C-1523 treatment in B cells, the expression of other common markers of apoptotic induction was examined via Western Blot.
Cell lines and cell culture. […] Immunofluorescence.

B cells = assay: Western Blot of apoptotic markers PARP-1 and caspase-9; type: cell-based
Protocol: as §1

SMILES: CC(=O)Nc1ccc(/C=C/c2ccc(NC(=S)NC(C)C)cc2S(=O)(=O)O)c(S(=O)(=O)O)c1 [C-1523, (E)-5-acetamido-2-(4-(3-isopropylthioureido)-2-sulfonatostyryl)benzenesulfonate]
- change in GFP-positive cells (U2OS cells): no significant change
- sensitivity to ionizing irradiation (CH12-F3 cells): sensitivity to ionizing irradiation at every concentration tested
- concentration eliciting AID-specific cytotoxicity [1]: 100 nM
- rank among DIDS analogs tested [1]: most potent DIDS analog tested
- AID+:AID− activity score: effect in AID+ cells versus corresponding AID- cells ([1]; 10 μM): roughly 6 fold
- effectiveness relative to DIDS ([1]; Example 3 summary): 1000 times
- potency relative to DIDS ([1]; dose response data): at least 1500 times
- caspase 3 activation [2]: did not significantly induce caspase 3 activation
- increase in micronuclei compared to DMSO [3]: 9 fold
- median number of SCE events per chromosome (HEK293T cells): significantly reduced
- dependence of induced cell death [4]: both AID and Trp53 dependent
- shape of dose response ([4]; 1 to 1000 nM): biphasic response
- B-cell viability ([4]; 50, 100, 150, 200, or 250 nM, 3 days, Trypan blue): dose-dependent reduction in B-cell viability; also recorded: dose dependent reduction in B-cell viability
- cellular expansion ([4]; 50-250 nM, four days, αCD40+IL-4 activation): selectively suppressed cellular expansion
- PI+ cells (cell death) ([4]; day 4, flow cytometry): significant increase in PI+ cells
- viability [5]: did not show reduced viability
- cleavage of PARP-1 or caspase-9 (B cells; 2 days following activation): no cleavage of PARP-1 or caspase-9 was observed
- cleaved PARP-1 and caspase-9 (B cells; 3 days): not due to C-1523 treatment specifically
